The results in this text go back to patent US6358885B1, “Substituted phenylheterocyclic herbicides” (Mississippi State University, priority 1992, dated 2002).

The structures appear in SMILES notation.

For this assay, the system named is speedwell. The experiment in a line: Test C preemergence/postemergence greenhouse plant response rating 0 to 100. It counts as in vivo, Veronica persica. Conditions: for Plant response rating Speedwell: 0 to 100 scale. The text has this:
The compounds evaluated in this test were formulated in a non-phytoxic solvent and applied to the soil surface before plant seedlings emerged (preemergence application), to water that covered the soil surface (flood application), and to plants that were in the one-to-four leaf stage (postemergence application). A sandy loam soil was used for the preemergence and postemergence tests, while a silt loam soil was used in the flood test. Water depth was approximately 2.5 cm for the flood test and was maintained at this level for the duration of the test. Plant species in the preemergence and postemergence tests consisted of barley (Hordeum vulgare), bedstraw (Galium aparine), blackgrass (Alopecurus myosuroides), chickweed (Stellaria media), corn (Zea mays), cotton (Gossypium hirsutum), crabgrass (Digitaria sanguinalis), downy brome (Bromus tectorum), giant foxtail (Setaria faberii), lambsquarters (Chenopodium album), morningglory (Ipomoea hederacea), pigweed ([…]), rape (Brassica napus), ryegrass (Lolium multiflorum), sorghum (Sorghum bicolor), soybean (Glycine max), speedwell (Veronica persica), sugar beet (Beta vulgaris), velvetleaf (Abutilon theophrasti), wheat (Triticum aestivum), wild buckwheat (Polygonum convolvulus), and wild oat (Avena fatua). All plant species were planted one day before application of the compound for the preemergence portion-of this test. Plantings of these species were adjusted to produce plants of appropriate size for the post-emergence portion of the test. […] All plant species were grown using normal greenhouse practices. Visual evaluations of injury expressed on treated plants, when compared to untreated controls, were recorded approximately fourteen to twenty one days after application of the test compound. […] A dash (-) response means no test result.

As to `C#CCN1C(=O)COc2cc(F)c(-c3nn4c(c3Br)CCCC4)cc21` [Compound 56], the “Plant response rating Speedwell” value (POSTEMERGENCE, 62 g/ha) stood at 100. Also, the “Plant response rating (0 to 100), Speedwell” value came out at 100 (POSTEMERGENCE, Rate 1 g/ha); 100 (POSTEMERGENCE, Rate 4 g/ha); 100 (Rate 16 g/ha, POSTEMERGENCE).

On to `CCOC(=O)COc1cc(-c2nn3c(c2Cl)CCCC3)c(F)cc1Cl` [Compound 42], for which the “Plant response rating Speedwell” value amounted to 100 (POSTEMERGENCE, 62 g/ha) and 100 (POSTEMERGENCE, 125 g/ha). Besides, the “Plant response rating (0 to 100), Speedwell” value (Rate 16 g/ha, POSTEMERGENCE) was 95 and the “Plant response rating (0 to 100), Speedwell” value (Rate 31 g/ha, POSTEMERGENCE) is recorded as 100.

Turning to `CCOCOc1cc(-c2nn3c(c2Cl)CCCC3)c(F)cc1Cl` [Compound 59], the “Plant response rating Speedwell” value came to 100 (POSTEMERGENCE, 125 g/ha) and 100 (PREEMERGENCE, 125 g/ha). Also, the “Plant response rating (0 to 100), Speedwell” value reads like this: (POSTEMERGENCE, Rate 2 g/ha) 100; (Rate 8 g/ha, POSTEMERGENCE) 100; (Rate 8 g/ha, PREEMERGENCE) 50; (Rate 31 g/ha, POSTEMERGENCE) 100; (Rate 31 g/ha, PREEMERGENCE) 100.

In the case of `CCN1C(=O)COc2cc(F)c(-c3nn4c(c3Cl)CCCC4)cc21` [Compound 54], the “Plant response rating Speedwell” value (POSTEMERGENCE, 62 g/ha) is recorded as 100. The “Plant response rating (0 to 100), Speedwell” value was determined as 100 (POSTEMERGENCE, Rate 1 g/ha); 100 (POSTEMERGENCE, Rate 4 g/ha); 50 (PREEMERGENCE, Rate 1 g/ha); 100 (PREEMERGENCE, Rate 4 g/ha); 100 (Rate 16 g/ha, POSTEMERGENCE); 100 (Rate 16 g/ha, PREEMERGENCE).

On to `CC(C)OC(=O)COc1cc(-c2nn3c(c2Cl)CCCC3)c(F)cc1Cl` [Compound 39], for which the “Plant response rating Speedwell” value (POSTEMERGENCE, 62 g/ha) was 95 and the “Plant response rating Speedwell” value (POSTEMERGENCE, 125 g/ha) is on record as 100. Further, the “Plant response rating (0 to 100), Speedwell” value is, setting by setting: (Rate 16 g/ha, POSTEMERGENCE) 90; (Rate 31 g/ha, POSTEMERGENCE) 90.

Regarding `COCOc1cc(-c2nn3c(c2Cl)CCCC3)c(F)cc1Cl` [Compound 58], the “Plant response rating Speedwell” value is 100 (POSTEMERGENCE, 125 g/ha) and 100 (PREEMERGENCE, 125 g/ha). Moreover, the “Plant response rating (0 to 100), Speedwell” value by setting is: (POSTEMERGENCE, Rate 2 g/ha) 40; (PREEMERGENCE, Rate 2 g/ha) 0; (Rate 8 g/ha, POSTEMERGENCE) 70; (Rate 8 g/ha, PREEMERGENCE) 100; (Rate 31 g/ha, POSTEMERGENCE) 100; (Rate 31 g/ha, PREEMERGENCE) 100.

For the molecule `CC(C)Oc1cc(-c2nn3c(c2Br)CCCC3)c(F)cc1Cl` [Compound 38], the “Plant response rating (0 to 100), Speedwell” value was 0 (PREEMERGENCE, Rate 1 g/ha); 0 (PREEMERGENCE, Rate 4 g/ha); 0 (Rate 16 g/ha, PREEMERGENCE).

Take `C=C(Cl)COc1cc(-c2nn3c(c2Cl)CCCC3)c(F)cc1Cl` [Compound 40]: the “Plant response rating Speedwell” value (POSTEMERGENCE, 62 g/ha) is 100 and the “Plant response rating Speedwell” value (POSTEMERGENCE, 125 g/ha) worked out at 100. In addition, the “Plant response rating (0 to 100), Speedwell” value runs as follows: (Rate 16 g/ha, POSTEMERGENCE) 90; (Rate 31 g/ha, POSTEMERGENCE) 95.

As to `Fc1cc(Cl)c(OCCCl)cc1-c1nn2c(c1Cl)CCCC2` [Compound 49], the “Plant response rating Speedwell” value runs as follows: (POSTEMERGENCE, 62 g/ha) 100; (POSTEMERGENCE, 250 g/ha) 100. The “Plant response rating (0 to 100), Speedwell” value is, setting by setting: (POSTEMERGENCE, Rate 4 g/ha) 85; (Rate 16 g/ha, POSTEMERGENCE) 100.

For the molecule `C=CCN1C(=O)COc2cc(F)c(-c3nn4c(c3Br)CCCC4)cc21` [Compound 41], the “Plant response rating Speedwell” value is, setting by setting: (POSTEMERGENCE, 62 g/ha) 100; (POSTEMERGENCE, 125 g/ha) 100. Also, the “Plant response rating (0 to 100), Speedwell” value runs as follows: (Rate 16 g/ha, POSTEMERGENCE) 100; (Rate 31 g/ha, POSTEMERGENCE) 100.

For the molecule `CCCN1C(=O)COc2cc(F)c(-c3nn4c(c3Br)CCCC4)cc21` [Compound 63], the “Plant response rating Speedwell” value (PREEMERGENCE, 250 g/ha) is given as 100. Besides, the “Plant response rating (0 to 100), Speedwell” value by setting is: (PREEMERGENCE, Rate 4 g/ha) 0; (Rate 16 g/ha, PREEMERGENCE) 90.

Turning to `C#CC(C)Oc1cc(-c2nn3c(c2Br)CCCC3)c(F)cc1Cl` (stereo not drawn) [Compound 66], the “Plant response rating Speedwell” value worked out at 100 (POSTEMERGENCE, 62 g/ha); 100 (POSTEMERGENCE, 250 g/ha); 100 (PREEMERGENCE, 250 g/ha). Also, the “Plant response rating (0 to 100), Speedwell” value runs as follows: (POSTEMERGENCE, Rate 4 g/ha) 100; (PREEMERGENCE, Rate 4 g/ha) 0; (Rate 16 g/ha, POSTEMERGENCE) 100; (Rate 16 g/ha, PREEMERGENCE) 90.

`Fc1cc(Cl)ccc1-c1nn2c(c1Br)CCCC2` [Compound 52]: the “Plant response rating Speedwell” value runs as follows: (POSTEMERGENCE, 125 g/ha) 100; (PREEMERGENCE, 125 g/ha) 100. In addition, the “Plant response rating (0 to 100), Speedwell” value (PREEMERGENCE, Rate 2 g/ha) was determined as 0; the “Plant response rating (0 to 100), Speedwell” value (Rate 8 g/ha, POSTEMERGENCE) is reported as 30; the “Plant response rating (0 to 100), Speedwell” value (Rate 8 g/ha, PREEMERGENCE) is on record as 0; the “Plant response rating (0 to 100), Speedwell” value (Rate 31 g/ha, POSTEMERGENCE) was 100; the “Plant response rating (0 to 100), Speedwell” value (Rate 31 g/ha, PREEMERGENCE) was 20.

On to `COCN1C(=O)COc2cc(F)c(-c3nn4c(c3Cl)CCCC4)cc21` [Compound 55], for which the “Plant response rating Speedwell” value (POSTEMERGENCE, 62 g/ha) came out at 100. Besides, the “Plant response rating (0 to 100), Speedwell” value was determined as 60 (POSTEMERGENCE, Rate 1 g/ha); 100 (POSTEMERGENCE, Rate 4 g/ha); 100 (Rate 16 g/ha, POSTEMERGENCE).

In the case of `C#CC(C)N1C(=O)COc2cc(F)c(-c3nn4c(c3Cl)CCCC4)cc21` (stereo not drawn) [Compound 50], the “Plant response rating Speedwell” value (POSTEMERGENCE, 62 g/ha) came out at 100. Besides, the “Plant response rating (0 to 100), Speedwell” value (POSTEMERGENCE, Rate 1 g/ha) amounted to 0; the “Plant response rating (0 to 100), Speedwell” value (POSTEMERGENCE, Rate 4 g/ha) is on record as 70; the “Plant response rating (0 to 100), Speedwell” value (Rate 16 g/ha, POSTEMERGENCE) is reported as 100.

`COCN1C(=O)COc2cc(F)c(-c3nn4c(c3Br)CCCC4)cc21` [Compound 67]: where the note is “POSTEMERGENCE, 62 g/ha”, the “Plant response rating Speedwell” value came out at 100. The “Plant response rating (0 to 100), Speedwell” value is, setting by setting: (POSTEMERGENCE, Rate 1 g/ha) 90; (POSTEMERGENCE, Rate 4 g/ha) 100; (Rate 16 g/ha, POSTEMERGENCE) 100.
